# Target: T1, human M1 receptor (hCHRM1) (Homo sapiens, UniProt P11229)
# T1 construct: expressed in transfected cells
# T1 sequence (P11229 1-460): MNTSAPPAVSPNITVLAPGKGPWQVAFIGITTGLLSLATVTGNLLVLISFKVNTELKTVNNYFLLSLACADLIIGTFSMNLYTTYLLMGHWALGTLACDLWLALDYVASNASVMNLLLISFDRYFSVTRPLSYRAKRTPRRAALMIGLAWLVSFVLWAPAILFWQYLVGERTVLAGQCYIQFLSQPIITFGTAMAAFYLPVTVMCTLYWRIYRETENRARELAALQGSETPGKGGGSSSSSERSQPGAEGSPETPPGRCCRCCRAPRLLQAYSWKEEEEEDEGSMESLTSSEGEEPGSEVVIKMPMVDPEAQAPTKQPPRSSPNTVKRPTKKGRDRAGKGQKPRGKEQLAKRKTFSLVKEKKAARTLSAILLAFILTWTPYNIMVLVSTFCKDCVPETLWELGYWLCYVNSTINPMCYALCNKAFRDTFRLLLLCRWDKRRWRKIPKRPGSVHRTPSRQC
# Experiment: Measurement of M1 receptor positive allosteric modulator (M1PAM) activity, calcium fluorescence (FLIPRtetra) with acetylcholine at EC20
# Type: cell-based
# Settings: for activity (%) at 10 μM: 10 μM test compound, 100% = acetylcholine 1 μM, 0% = DMSO, acetylcholine at EC20; for EC50: inflection point of concentration-dependent curve, CHO-K1 cells expressing hCHRM1, acetylcholine at EC20 (final 0.6-0.8 nM), read-out: IP value
# Summary of the method: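 CHO-K1 cells stably expressing hCHRM1, Fluo-4 AM loaded; compound added with acetylcholine at EC20 (final 0.6-0.8 nM), fluorescence read 1 min. Activity normalised to 1 μM acetylcholine (100%) and DMSO (0%); IP values taken as inflection point of the concentration-response curve.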
SMILES,activity (%) at 10 μM [%],EC50 [nM]
"CCc1cc2c(cc1Cc1ccc(-c3ccn(C)n3)cc1)C(=O)N([C@H]1CCC[C@@H]1O)C2 [Example 120, 5-ethyl-2-((1S,2S)-2-hydroxycyclopentyl)-6-(4-(1-methyl-1H-pyrazol-3-yl)benzyl)isoindolin-1-one]",93,25
"Cc1cc2c(cc1Cc1ccc(-c3cn(C)nc3C)nc1)C(=O)N([C@H]1CCCC[C@@H]1O)C2 (racemic) [Example 5, rac-6-((6-(1,3-dimethyl-1H-pyrazol-4-yl)pyridin-3-yl)methyl)-2-(trans-2-hydroxycyclohexyl)-5-methylisoindolin-1-one]",102,8.2
"Cc1c(Cc2ccc(-c3cn(C)nn3)cc2F)cc2c(c1C)CN(CC1CCCO1)C2=O (stereo not drawn) [Example 103, 6-(2-fluoro-4-(1-methyl-1H-1,2,3-triazol-4-yl)benzyl)-4,5-dimethyl-2-(tetrahydrofuran-2-ylmethyl)isoindolin-1-one]",94,6
"CCc1cc2c(cc1Cc1ccc(-c3cn(C)nn3)cc1)C(=O)N([C@H]1CCC[C@@H]1O)C2 (racemic) [Example 106, rac-5-ethyl-2-(trans-2-hydroxycyclopentyl)-6-(4-(1-methyl-1H-1,2,3-triazol-4-yl)benzyl)isoindolin-1-one]",92,11
"Cc1c(Cc2ccc(C#N)cc2)cc2c(c1C)CN([C@H]1COCC[C@@H]1O)C2=O [Example 156, 4-({2-[(3S,4S)-4-hydroxytetrahydro-2H-pyran-3-yl]-6,7-dimethyl-3-oxo-2,3-dihydro-1H-isoindol-5-yl}methyl)benzonitrile]",80,4.3
"CCOc1ccc(Cc2cc3c(c(C)c2C)CN([C@H]2COCC[C@@H]2O)C3=O)cc1 [Example 142, 6-(4-ethoxybenzyl)-2-[(3S,4S)-4-hydroxytetrahydro-2H-pyran-3-yl]-4,5-dimethyl-2,3-dihydro-1H-isoinol-1-one]",106,31
"Cc1c(Cc2ccc(-n3cccn3)cc2)cc2c(c1C)CN(c1ncccc1F)C2=O [Example 153, 2-(3-fluoropyridin-2-yl)-4,5-dimethyl-6-(4-(1H-pyrazol-1-yl)benzyl)isoindolin-1-one]",92,57
"CCc1cc2c(cc1Cc1ccc(-c3ccn(C)n3)cc1)C(=O)N([C@H]1COCC[C@@H]1O)C2 [Example 116, 5-ethyl-2-[(3S,4S)-4-hydroxytetrahydro-2H-pyran-3-yl]-6-[4-(1-methyl-1H-pyrazol-3-yl)benzyl]-2,3-dihydro-1H-isoindol-1-one]",111,6.1
"Cc1cc2c(cc1Cc1ccc(-c3cn(C)nn3)cc1)C(=O)N([C@H]1CCC[C@@H]1O)C2 (racemic) [Example 48, rac-2-(trans-2-hydroxycyclopentyl)-5-methyl-6-(4-(1-methyl-1H-1,2,3-triazol-4-yl)benzyl)isoindolin-1-one]",102,31
"Cc1c(Cc2ccc(-c3cnn(C)c3)cc2)cc2c(c1C)CN(CC1CCCO1)C2=O (stereo not drawn) [Example 84, 4,5-dimethyl-6-(4-(1-methyl-1H-pyrazol-4-yl)benzyl)-2-(tetrahydrofuran-2-ylmethyl)isoindolin-1-one]",104,52
"Cc1c(Cc2ccc(C#N)cc2F)cc2c(c1C)CN([C@H]1COCC[C@@H]1O)C2=O (racemic) [Example 112, rac-3-fluoro-4-((2-(trans-4-hydroxytetrahydro-2H-pyran-3-yl)-6,7-dimethyl-3-oxo-2,3-dihydro-1H-isoindol-5-yl)methyl)benzonitrile]",93,30
"CNC(=O)c1ccc(Cc2cc3c(c(C)c2C)CN(C[C@@H]2CCCO2)C3=O)cc1F [Example 139, 4-((6,7-dimethyl-3-oxo-2-((2S)-tetrahydrofuran-2-ylmethyl)-2,3-dihydro-1H-isoindol-5-yl)methyl)-2-fluoro-N-methylbenzamide]",102,14
"Cc1c(Cc2ccc(-c3ccn(C)n3)cc2)cc2c(c1F)CN([C@H]1COCC[C@@H]1O)C2=O [Example 140, 4-fluoro-2-[(3S,4S)-4-hydroxytetrahydro-2H-pyran-3-yl]-5-methyl-6-[4-(1-methyl-1H-pyrazol-3-yl)benzyl]-2,3-dihydro-1H-isoindol-1-one]",93,2
"CCc1cc2c(cc1Cc1ccc(-c3ccn(C)n3)cc1)C(=O)N([C@H]1CCC[C@@H]1O)C2 (racemic) [Example 63, rac-5-ethyl-2-(trans-2-hydroxycyclopentyl)-6-(4-(1-methyl-1H-pyrazol-3-yl)benzyl)isoindolin-1-one]",99,45
"CCc1cc2c(cc1Cc1ccc(-n3cccn3)cc1)C(=O)N(CC(C)(C)O)C2 [Example 129, 5-ethyl-2-(2-hydroxy-2-methylpropyl)-6-(4-(1H-pyrazol-1-yl)benzyl)isoindolin-1-one]",100,53
"Cn1cc(-c2ccc(Cc3cc4c(cc3C3CC3)CN([C@H]3CCC[C@@H]3O)C4=O)cc2)nn1 (racemic) [Example 64, rac-5-cyclopropyl-2-(trans-2-hydroxycyclopentyl)-6-(4-(1-methyl-1H-1,2,3-triazol-4-yl)benzyl)isoindolin-1-one]",104,22

# More lines, now with the values ahead:
activity (%) at 10 μM [%],EC50 [nM],SMILES
111,750,"Cn1cc(-c2ccc(Cc3ccc4c(c3)C(=O)N([C@H]3CCCC[C@@H]3O)C4)cn2)cn1 (racemic) [Example 1, rac-2-(trans-2-hydroxycyclohexyl)-6-((6-(1-methyl-1H-pyrazol-4-yl)pyridin-3-yl)methyl)isoindolin-1-one]"
97,23,"Cn1cc(-c2ccc(Cc3cc4c(cc3Cl)CN([C@H]3CCCC[C@@H]3O)C4=O)cc2)cn1 (racemic) [Example 75, rac-5-chloro-2-(trans-2-hydroxycyclohexyl)-6-(4-(1-methyl-1H-pyrazol-4-yl)benzyl)isoindolin-1-one]"
95,8.8,"Cc1c(Cc2ccc(-n3cccn3)cc2)cc2c(c1F)CN([C@H]1CCCC[C@@H]1O)C2=O (racemic) [Example 78, rac-4-fluoro-2-(trans-2-hydroxycyclohexyl)-5-methyl-6-(4-(1H-pyrazol-1-yl)benzyl)isoindolin-1-one]"
107,83,"Cc1cc2c(cc1Cc1ccc(-n3cccn3)cc1)C(=O)N(CC1CCCO1)C2 (stereo not drawn) [Example 36, 5-methyl-6-(4-(1H-pyrazol-1-yl)benzyl)-2-(tetrahydrofuran-2-ylmethyl)isoindolin-1-one]"
94,12,"Cc1c(Cc2ccc(-n3cccn3)cc2F)cc2c(c1C)CN([C@H]1CCC[C@@H]1O)C2=O [Example 16, 6-(2-fluoro-4-(1H-pyrazol-1-yl)benzyl)-2-((1S,2S)-2-hydroxycyclopentyl)-4,5-dimethylisoindolin-1-one]"
106,66,"O=C1c2cc(Cc3ccc(-n4cccn4)cc3)c(C(F)(F)F)c(Cl)c2CN1[C@H]1CCCC[C@@H]1O (racemic) [Example 10, rac-4-chloro-2-(trans-2-hydroxycyclohexyl)-6-(4-(1H-pyrazol-1-yl)benzyl)-5-(trifluoromethyl)isoindolin-1-one]"
103,11,"Cc1c(Cc2ccc(-n3cccn3)cc2)cc2c(c1C)CN(CC(C)(C)O)C2=O [Example 15, 2-(2-hydroxy-2-methylpropyl)-4,5-dimethyl-6-(4-(1H-pyrazol-1-yl)benzyl)isoindolin-1-one]"
106,6.2,"Cc1cc2c(cc1Cc1ccc(-n3cccn3)cc1)C(=O)N([C@H]1COCC[C@@H]1O)C2 [Example 21, 1,5-anhydro-2,4-dideoxy-2-(5-methyl-1-oxo-6-(4-(1H-pyrazol-1-yl)benzyl)-1,3-dihydro-2H-isoindol-2-yl)-L-threo-pentitol]"
98,19,"Cc1cc2c(cc1Cc1ccc(-n3cccn3)cc1)C(=O)N([C@H]1CCC[C@@H]1O)C2 [Example 4, 2-((1S,2S)-2-hydroxycyclopentyl)-5-methyl-6-(4-(1H-pyrazol-1-yl)benzyl)isoindolin-1-one]"
95,66,"Cc1c(Cc2ccc(-n3cccn3)cc2)cc2c(c1C)CN(c1ncc(Cl)cc1F)C2=O [Example 162, 2-(5-chloro-3-fluoropyridin-2-yl)-4,5-dimethyl-6-(4-(1H-pyrazol-1-yl)benzyl)isoindolin-1-one]"
94,5.7,"Cc1c(Cc2ccc(-c3cnn(C)c3)cc2)cc2c(c1C)CN([C@H]1CCCC[C@@H]1O)C2=O (racemic) [Example 89, rac-2-(trans-2-hydroxycyclohexyl)-4,5-dimethyl-6-(4-(1-methyl-1H-pyrazol-4-yl)benzyl)isoindolin-1-one]"

# Reference: US9315458B2, “Nitrogen-containing heterocyclic compound” (Takeda Pharmaceutical Company Limited, priority 2014, dated 2016)
